According to patent US10047113B2, “Feruloyl-CoA:monolignol transferase” (Wisconsin Alumni Research Foundation (WARF), priority 2010, dated 2018):

What was measured:
[1] = tested on: feruloyl-CoA:monolignol transferase (FMT); assay: Feruloyl-CoA:monolignol transferase (FMT) enzymatic assay, UPLC detection of product; type: biochemical, Angelica sinensis; conditions: purified recombinant enzyme; for product formation from acyl-CoA substrate: coniferyl alcohol as acceptor, FIGS. 2, 6, 7; for FMT enzyme activity with monolignol as substrate: feruloyl-CoA as acyl donor, FIGS. 2, 4, 5
Method: The feruloyl-CoA, p-coumaroyl-CoA, and caffeoyl-CoA substrates used in the FMT assay were enzymatically synthesized using the tobacco 4-coumarate-CoA-ligase (4CL) with a c-terminal HIS tag in pCRT7/CT TOPO, provided by Eran Pichersky. Following a method modified from Beuerle and Pichersky (Anal. Biochem. 302(2): 305-12 (2001)) 3.3 mg of ferulic acid, coumaric acid or caffeic acid, 2 mg coenzyme A, and 6.9 mg ATP were added to 50 mM Tris-hydrochloride pH 8 and 2.5 mM magnesium chloride in a final volume of 10 ml. The reaction was started by adding 0.25 mg 4CL, protein purified as described by the method of Beurerle and Pichershy. After a five-hour incubation at room temperature, additional 6.9 mg ATP, 2 mg coenzyme A, and 0.25 mg purified 4CL were added and the reaction was incubated overnight. The CoA esters were purified on an SPE cartridge as described in Beuerle and Pichersky (2001).
(§1) The FMT activity assay contained 100 mM MOPS pH 6.8, 1 mM dithiothreitol (DTT), 1 mM feruloyl-CoA, 1 mM coniferyl alcohol, 3.9 μg of purified FMT protein and deionized water to a volume of 50 μL. After a 30-minute incubation, 1 μL of 10 M hydrochloric acid was added to stop the reaction. Because the product synthesized in the reaction, coniferyl ferulate (CAFA), is insoluble, 50 μL of methanol was added to solubilize the CAFA. Prior to UPLC, protein and insoluble material were removed by filtering through an Amicon Ultracel 10K membrane filter (Millipore). The flow-through was analyzed using an Acquity Ultra Performance LC with an Acquity UPLC BEH C18 1.7 μm 2.1×100 mm column and the Acquity Console and Empower 2 Software, all from Waters Corporation. The solvents used in this method were solvent A, 0.1% trifluoroacetic acid, and solvent B, 100% acetonitrile. Samples were analyzed using the following gradient conditions, 13% B, for 5 minutes, 1 minute linear gradient to 42% B, held for 4 minutes, 1 minute linear gradient to 100% B, held for 1 minutes and 3 minutes at 13% B with a flow rate of 0.3 ml/minute. This method was then used to analyze a 10 μL injection of each assay reaction; standards for each of the substrates along with chemically synthesized CAFA were used to determine retention times for each compound.
Purified recombinant enzyme was assayed for FMT activity using a reaction mixture containing 2 mM coniferyl alcohol, […], 100 mM HEPES pH 7.4 and 1 mM DTT. The second most abundant BAHD acyltransferase gene when incubated with Coniferyl alcohol and feruloyl-CoA produced a compound with the retention time of authentic coniferyl ferulate (CAFA) (FIG. 2). […] The addition of methanol to 50% after stopping the enzyme with acid was required to analyze the product by UPLC. The insolubility of the product made partial purification easy as the product was separated from the substrates by centrifugation.
This partial purified product was analyzed by NMR. The identity of the product as CAFA was confirmed by ^1H-NMR (FIG. 3). The enzyme was tested with p-coumaryl alcohol (FIG. 4) and sinapyl alcohol (FIG. 5) in addition to coniferyl alcohol (FIG. 2). The enzyme is active with all three monolignols, i.e., p-coumaryl alcohol, coniferyl alcohol and sinapyl alcohol. The enzyme was tested with p-coumaroyl-CoA (FIG. 6) and caffeoyl-CoA (FIG. 7) as well as feruloyl-CoA (FIG. 2).

[2] = Solubility of the FMT reaction product; type: physicochemical
Method: as §1, with “compound. […]” for “compound.”

| SMILES | product formation from acyl-CoA substrate [1] | FMT enzyme activity with monolignol as substrate [1] | further results |
| --- | --- | --- | --- |
| CC(C)(COP(=O)(O)OP(=O)(O)OC[C@H]1O[C@@H](n2cnc3c(N)ncnc32)[C@H](O)[C@@H]1OP(=O)(O)O)[C@@H](O)C(=O)NCCC(=O)NCCSC(=O)/C=C/c1ccc(O)c(O)c1 [caffeoyl-CoA] | very little product is produced |  |  |
| COc1cc(/C=C/CO)ccc1O [coniferyl alcohol] |  | active |  |
| COc1cc(/C=C/COC(=O)/C=C/c2ccc(O)c(OC)c2)ccc1O [coniferyl ferulate] |  |  | solubility in assay reaction mixture ([2]; FMT activity assay, 100 mM MOPS pH 6.8, methanol added to solubilize): insoluble; solubility in water ([2]; product of enzyme reaction, methanol to 50% needed for UPLC): mostly insoluble in water |
| COc1cc(/C=C/C(=O)SCCNC(=O)CCNC(=O)[C@H](O)C(C)(C)COP(=O)(O)OP(=O)(O)OC[C@H]2O[C@@H](n3cnc4c(N)ncnc43)[C@H](O)[C@@H]2OP(=O)(O)O)ccc1O [feruloyl-CoA] | substantial product is formed |  |  |
| CC(C)(COP(=O)(O)OP(=O)(O)OC[C@H]1O[C@@H](n2cnc3c(N)ncnc32)[C@H](O)[C@@H]1OP(=O)(O)O)[C@@H](O)C(=O)NCCC(=O)NCCSC(=O)/C=C/c1ccc(O)cc1 [p-coumaroyl-CoA] | very little product is produced |  |  |
| OC/C=C/c1ccc(O)cc1 [p-coumaryl alcohol] |  | active |  |
| COc1cc(/C=C/CO)cc(OC)c1O [sinapyl alcohol] |  | active |  |
